Consider one molecule from patent US8716266B2, “Use of PKC-iota inhibitors for the treatment of glioma” (University of South Florida, priority 2011, dated 2014).

The test system of data set [1] is Human glioblastoma cell line U-87 MG. The experiment in a line: Human glioblastoma U-87 MG subcutaneous xenograft in athymic nude mice, tumor volume. Format: in vivo, female athymic nude mice. The source says:
The cell injection site was marked.

The nature of data set [2]: Body weight and survival of xenografted mice under ICA-1 treatment.
Procedure: Briefly, nine female athymic nude mice, weighing 17 to 23 grams, were divided into 3 groups: Group 1, mice received human glioblastoma xenografts and were treated with saline controls (n=3); Group 2, mice received human glioblastoma xenografts and were treated with ICA-1 (80 mg/kg/day; 20 μM) immediately after glioma implantation (n=3); Group 3, mice received human glioblastoma xenografts and were treated with ICA-1 (80 mg/kg/day, 20 μM) when the tumor reached 100 mm^3 on day 5 post implantation (n=3).
Human glioblastoma cell line U-87 MG, a commonly-studied human grade IV glioblastoma-astrocytoma, epithelial-like cell line, was injected subcutaneously into right flank (1×10^6 cells/flank in 0.1 ml PBS) of the mice. The cell injection site was marked. After glioblastoma implantation, ICA-1 (80 mg/kg/day; 20 μM) was subcutaneously injected, daily, into and around the tumor/cell injection area of Groups 2 and 3 mice; Group 1 mice was treated with vehicle. Tumor volume was calculated using the following formula: length×width×width×½.
Setting [3] is: Group 2: ICA-1 80 mg/kg/day daily from implantation.

With `NC(=O)c1ncn(C2CC(COP(=O)(O)O)C(O)C2O)c1N` (stereo not drawn) [ICA-1, 1H-imidazole-4-carboxamide, 5-amino-1-[2,3-dihydroxy-4-[(phosphonooxy)methyl]cyclopentyl]-[1R-(1α, 2β, 3β, 4α)]], the tumor growth result in data set [1] (Group 2: ICA-1 80 mg/kg/day (20 μM) s.c. daily into and around tumor area, started immediately after glioma implantation) is listed as “prevented tumor growth”; in data set [1] (Group 3: ICA-1 80 mg/kg/day (20 μM) s.c. daily, started when tumor reached 100 mm^3 on day 5 post implantation), “prevented tumor growth”. The glioma volume entry in data set [1] (Group 3: ICA-1 80 mg/kg/day, 4 days of treatment (day 5-day 9 post implantation)) is given as “reduced glioma volume”. The “glioma size after the ICA-1 treatment was terminated” value in data set [1] (Group 3: after termination of treatment on day 9 post implantation) is “continued to reduce”. Also, the “glioma size relative to that of the control mice” value in data set [1] (Group 3: end of study period, 8 days after termination of ICA-1 treatment (80 mg/kg/day, day 5-day 9)) was determined as 53%. Further, the body weight entry in data set [2] (setting [3]) is “lost significant weight”; in data set [2] (Group 3: ICA-1 80 mg/kg/day for 4 days (day 5-day 9 post implantation)), “did not exhibit significant weight loss”. Moreover, in data set [2] (setting [3]), the survival / lethality result was “died seven days post ICA-1 treatment”.
